Laboratory results taken from the supplement of paper PMC10307832.

What was measured:
Test in all cases: relative viability (nuclei count vs DMSO), 5 days (fraction); higher = more cells survive
Mirin + Tozasertib = compound: N=C1NC(=O)/C(=C/c2ccc(O)cc2)S1 [Mirin] + Cc1cc(Nc2cc(N3CCN(C)CC3)nc(Sc3ccc(NC(=O)C4CC4)cc3)n2)n[nH]1 [Tozasertib] (partner 0.1 µM)
In short: (§1)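 Medians of duplicate plates are given as relative viability. That measure is the nuclei count in treated wells divided by the count in vehicle wells. Counts were taken on 4× images of lung cancer cell lines in 1536-well plates, 5 days after pin-tool dosing the day after seeding with one drug alone or a fixed anchor-drug dose plus five library-drug doses (not always all listed) in √10 steps.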

[1] = compound: CCC1=CN=CN=C1N2CCN(CC2)CC3=NC4=C(N3)C=C(C=C4)C(F)(F)F + COc1cc2c(Oc3ccc(NC(=O)C4(C(=O)Nc5ccc(F)cc5)CC4)cc3F)ccnc2cc1OCCCN1CCOCC1 [Foretinib] (partner 0.25 µM)
In short: as §1

[2] = compound: CCC1=CN=CN=C1N2CCN(CC2)CC3=NC4=C(N3)C=C(C=C4)C(F)(F)F + C[C@]1(O)C[C@@H](c2nc(-c3ccc4ccc(-c5ccccc5)nc4c3)c3c(N)nccn32)C1 [Linsitinib] (partner 1 µM)
In short: as §1

Mirin + Linsitinib = compound: N=C1NC(=O)/C(=C/c2ccc(O)cc2)S1 [Mirin] + C[C@]1(O)C[C@@H](c2nc(-c3ccc4ccc(-c5ccccc5)nc4c3)c3c(N)nccn32)C1 [Linsitinib] (partner 1 µM)
In short: as §1

Row | Cell Line | relative viability (Mirin + Tozasertib; first compound 0.25 µM) | relative viability (Mirin + Tozasertib; first compound 0.7906 µM) | relative viability (Mirin + Tozasertib; first compound 2.5 µM) | relative viability (Mirin + Tozasertib; first compound 7.906 µM) | relative viability (Mirin + Tozasertib; first compound 25 µM) | relative viability ([1]; first compound 0.04 µM) | relative viability ([1]; first compound 0.1265 µM) | relative viability ([1]; first compound 0.4 µM) | relative viability ([1]; first compound 1.265 µM) | relative viability ([1]; first compound 4 µM) | relative viability ([2]; first compound 0.04 µM) | relative viability ([2]; first compound 0.1265 µM) | relative viability ([2]; first compound 0.4 µM) | relative viability ([2]; first compound 1.265 µM) | relative viability ([2]; first compound 4 µM) | relative viability (Mirin + Linsitinib; first compound 0.25 µM) | relative viability (Mirin + Linsitinib; first compound 0.7906 µM) | relative viability (Mirin + Linsitinib; first compound 2.5 µM) | relative viability (Mirin + Linsitinib; first compound 7.906 µM) | relative viability (Mirin + Linsitinib; first compound 25 µM)
1 | LXF-289 | 0.214 | 0.241 | 0.156 | 0.128 | 0.151 | 1.03 | 0.949 | 0.971 | 0.937 | 0.934 | 0.983 | 0.957 | 0.983 | 0.976 | 0.954 | 0.971 | 1.09 | 1 | 1.03 | 1.02
2 | NCI-H23 | 0.496 |  | 0.427 | 0.288 | 0.256 | 0.822 | 0.99 | 0.961 | 0.801 | 0.906 | 0.681 | 0.689 | 0.59 | 0.623 | 0.638 | 0.618 |  | 0.573 | 0.612 | 0.543
3 | NCI-H322M | 0.509 | 0.524 | 0.569 | 0.447 | 0.401 | 1.08 | 0.907 | 0.939 | 0.953 | 0.925 | 0.979 | 0.801 | 0.911 | 0.909 | 1.02 | 0.891 | 1.08 | 0.976 | 1.04 | 0.651
4 | NCI-H358 | 0.11 | 0.0924 | 0.114 | 0.0872 | 0.106 | 0.746 | 0.626 | 0.686 | 0.509 | 0.651 | 0.809 | 0.656 | 0.656 | 0.657 | 0.607 | 0.734 | 0.719 | 0.836 | 0.57 | 0.373
5 | NCI-H441 | 0.719 | 0.762 | 0.634 | 0.551 | 0.26 | 0.96 | 1.07 | 0.938 | 0.884 | 0.993 | 0.526 | 0.553 | 0.444 | 0.489 | 0.497 | 0.503 | 0.493 | 0.599 | 0.45 | 0.48
6 | NCI-H460 | 0.386 | 0.393 | 0.402 | 0.229 | 0.221 | 1.05 | 1.03 | 0.999 | 1.06 | 0.964 | 0.891 | 0.683 | 0.828 | 0.716 | 0.718 | 0.809 | 0.759 | 0.764 | 0.649 | 0.474
7 | NCI-H520 | 0.407 | 0.5 | 0.469 | 0.47 | 0.352 | 0.795 | 0.626 | 0.777 | 0.588 | 0.798 | 0.908 | 0.93 | 0.886 | 0.773 | 0.861 | 0.969 | 0.921 | 0.946 | 0.803 | 0.638
8 | NCI-H596 | 1.05 | 0.953 | 0.972 | 1.13 | 0.866 | 0.861 | 1.13 | 0.818 |  | 0.966 | 1.14 | 1.08 | 1.09 | 1.06 | 1.02 | 0.975 | 0.919 | 1.03 | 1.11 | 0.902
9 | NCI-H647 | 0.23 | 0.224 | 0.185 | 0.165 | 0.165 | 1.29 | 1.12 | 1.21 | 1.13 | 1.41 | 1.33 | 1.18 |  | 1.24 | 1.31 | 1.37 | 1.44 | 1.19 | 1 | 0.63
10 | NCI-H650 | 0.684 | 0.557 | 0.707 |  | 0.51 | 1.16 | 1.09 | 1.05 | 0.934 | 1.03 | 0.7 | 1.03 | 1.01 | 0.864 | 0.804 | 0.942 |  | 0.941 |  | 0.956
11 | NCI-H661 | 0.351 | 0.367 | 0.344 | 0.337 | 0.327 | 0.973 | 1.03 | 1.04 | 0.943 | 0.834 | 0.711 | 0.629 | 0.622 |  | 0.483 | 0.432 | 0.58 | 0.613 | 0.451 | 0.414
12 | NCI-H727 | 0.705 | 0.629 | 0.661 | 0.543 | 0.553 | 0.854 | 0.811 | 0.693 | 0.573 | 0.949 | 0.246 | 0.183 | 0.495 |  | 0.299 | 0.328 | 0.39 | 0.3 | 0.383 | 0.333
13 | NCI-H838 | 0.265 | 0.303 | 0.213 | 0.23 | 0.203 | 1.1 | 0.986 | 0.958 | 0.888 | 1.09 | 0.991 | 0.912 | 0.941 | 0.916 | 1.05 | 1.01 | 1.14 | 1.12 | 1.1 | 0.761
14 | NCI-H1355 | 0.526 | 0.637 | 0.533 | 0.394 | 0.272 | 1 | 0.875 | 0.85 | 0.946 | 0.793 | 0.852 | 0.745 | 0.806 | 0.732 | 0.913 | 0.799 | 0.852 | 0.975 | 0.861 | 0.747
15 | NCI-H1395 | 0.703 | 0.857 | 0.66 | 0.772 | 0.72 | 0.847 | 0.881 | 1.01 | 0.986 | 0.94 | 1.12 | 1.01 | 1.24 | 0.855 | 1.09 | 1.13 |  | 1.07 | 1.05 | 0.901
16 | NCI-H1437 | 0.451 | 0.407 | 0.372 | 0.343 | 0.377 | 1.23 | 1.14 | 1.15 | 1.15 | 1.08 | 1.03 | 0.967 | 0.896 | 0.836 | 0.634 | 1.09 | 1.01 | 1.07 | 0.784 | 0.33
17 | NCI-H1651 | 0.667 | 0.788 | 0.622 | 0.489 | 0.587 | 0.934 | 0.704 | 0.861 | 0.709 | 0.667 | 0.96 | 1.09 | 0.934 | 0.938 | 0.944 | 1.06 | 1.01 | 0.982 | 0.741 | 0.856
18 | NCI-H1666 | 0.625 | 0.621 | 0.582 | 0.519 | 0.518 | 0.88 | 0.923 | 0.97 | 0.882 | 0.889 | 0.726 | 0.832 | 0.845 | 0.913 | 0.821 | 0.734 | 0.853 | 0.791 | 0.646 | 0.517
19 | NCI-H1734 | 0.262 | 0.285 | 0.272 | 0.228 | 0.223 | 0.828 | 0.811 | 0.874 | 0.816 | 0.765 | 0.971 | 0.836 | 0.946 |  | 0.877 | 0.851 | 0.852 | 0.875 | 0.739 | 0.765
20 | NCI-H1755 | 0.682 | 0.587 | 0.655 | 0.462 | 0.606 | 0.895 | 0.86 | 0.844 | 0.743 | 0.88 | 1.02 | 0.938 | 0.955 | 0.948 | 0.944 | 1.03 | 1.12 | 1.01 | 1.06 | 1.1
21 | NCI-H1793 | 0.341 |  | 0.619 | 0.283 | 0.178 | 0.7 | 0.771 | 0.568 |  | 0.669 | 1 | 0.677 | 0.825 |  | 0.895 | 0.816 | 0.794 | 0.902 | 0.947 | 0.641
22 | NCI-H1915 | 0.44 |  | 0.413 | 0.35 | 0.289 | 1.11 | 1.06 | 1.04 | 0.943 | 0.996 | 1.15 | 1.09 | 1.09 | 1.04 | 1.12 | 1.12 |  | 1.12 | 1.06 | 1.19
23 | NCI-H1944 | 0.245 | 0.231 | 0.253 | 0.192 | 0.174 | 1.1 | 0.844 | 0.809 | 0.648 | 0.694 | 1.36 | 1.21 | 1.08 |  | 0.99 | 1.11 |  | 1.25 | 1.05 | 0.752
24 | NCI-H1975 | 0.697 | 0.84 | 0.799 | 0.664 | 0.585 | 1 | 0.945 | 0.986 | 0.829 | 0.803 | 1.07 | 0.966 | 0.898 | 0.901 | 0.921 | 0.925 | 0.911 | 1.07 | 0.989 | 1.04
25 | NCI-H1993 | 0.611 |  | 0.605 | 0.52 | 0.576 | 0.844 | 0.73 | 0.668 | 0.682 | 0.668 | 0.81 | 0.799 | 0.753 | 0.72 | 0.838 | 0.739 | 0.746 | 0.698 | 0.727 | 0.756
26 | NCI-H2009 | 0.707 | 0.785 | 0.725 | 0.614 | 0.556 | 1.23 | 1.25 | 1.16 | 1.24 | 1.21 | 1.16 | 1.19 | 1.21 | 1.2 | 1.17 | 1.17 | 1.21 | 1.18 | 1.15 | 1.34
27 | NCI-H2023 | 0.343 | 0.354 | 0.38 | 0.27 | 0.188 | 0.698 | 0.911 | 0.849 | 0.628 | 0.895 | 0.714 | 0.658 | 0.664 | 0.757 | 0.746 | 0.709 | 0.674 | 0.653 | 0.684 | 0.522
